Measurements published in PubChem BioAssay (NCI).
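In this assay, cells in 96-well plates receive the compound at five concentrations for 48 hours. Endpoints are linearly interpolated between the surrounding concentrations. Here, GI50 denotes the concentration required for 50% inhibition of growth. TGI marks complete inhibition of growth.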

Legend:
Assay in all cases: growth of human tumour cells (NCI), 48 h
NCI-H23 lung = system: NCI-H23 lung
CAKI-1 renal = system: CAKI-1 renal
COLO 205 colon = system: COLO 205 colon
NCI-H460 lung = system: NCI-H460 lung
T-47D breast = system: T-47D breast
HOP-92 NSCLC = system: HOP-92 NSCLC
DU-145 prostate = system: DU-145 prostate
K-562 leukemia = system: K-562 leukemia
MOLT-4 leukemia = system: MOLT-4 leukemia
SK-MEL-28 melanoma = system: SK-MEL-28 melanoma
SNB-19 CNS = system: SNB-19 CNS
NCI-H226 lung = system: NCI-H226 lung
OVCAR-8 ovarian = system: OVCAR-8 ovarian
CCRF-CEM leukemia = system: CCRF-CEM leukemia
A498 renal = system: A498 renal
ACHN renal = system: ACHN renal
OVCAR-5 ovarian = system: OVCAR-5 ovarian
SF-539 CNS = system: SF-539 CNS
BT-549 breast = system: BT-549 breast
NCI/ADR-RES ovarian = system: NCI/ADR-RES ovarian
IGROV1 ovarian = system: IGROV1 ovarian
RXF 393 renal = system: RXF 393 renal
SF-268 CNS = system: SF-268 CNS
A549 NSCLC = system: A549 NSCLC
KM12 colon = system: KM12 colon
HCT-15 colon = system: HCT-15 colon
UO-31 renal = system: UO-31 renal
SW-620 colon = system: SW-620 colon
EKVX NSCLC = system: EKVX NSCLC
MCF7 breast = system: MCF7 breast
PC-3 prostate = system: PC-3 prostate
HT29 colon = system: HT29 colon
SF-295 CNS = system: SF-295 CNS
SR leukemia = system: SR leukemia
M14 melanoma = system: M14 melanoma
HOP-62 NSCLC = system: HOP-62 NSCLC
HCT-116 colon = system: HCT-116 colon
UACC-62 melanoma = system: UACC-62 melanoma
UACC-257 melanoma = system: UACC-257 melanoma
U251 CNS = system: U251 CNS
HCC-2998 colon = system: HCC-2998 colon
OVCAR-4 ovarian = system: OVCAR-4 ovarian
LOX IMVI melanoma = system: LOX IMVI melanoma
RPMI-8226 leukemia = system: RPMI-8226 leukemia
NCI-H522 lung = system: NCI-H522 lung
SK-OV-3 ovarian = system: SK-OV-3 ovarian
SK-MEL-2 melanoma = system: SK-MEL-2 melanoma
SN12C renal = system: SN12C renal
SK-MEL-5 melanoma = system: SK-MEL-5 melanoma
SNB-75 CNS = system: SNB-75 CNS
MALME-3M melanoma = system: MALME-3M melanoma
TK-10 renal = system: TK-10 renal
MDA-MB-435 = system: MDA-MB-435
HS 578T breast = system: HS 578T breast
MDA-MB-231 breast = system: MDA-MB-231 breast
786-0 renal = system: 786-0 renal
HL-60(TB) leukemia = system: HL-60(TB) leukemia

What does the source list for `Oc1cccc2ccc(-c3nnc(SCc4ccc(O)c5ncccc45)n3-c3ccccc3)nc12`?
GI50 (NCI-H23 lung): 533 nM; TGI (NCI-H23 lung): > 33500 nM; GI50 (CAKI-1 renal): 518 nM; TGI (CAKI-1 renal): 7250 nM; GI50 (COLO 205 colon): 4360 nM; TGI (COLO 205 colon): > 100000 nM; GI50 (NCI-H460 lung): 311 nM; TGI (NCI-H460 lung): 1560 nM; GI50 (T-47D breast): 380 nM; TGI (T-47D breast): 2570 nM; GI50 (HOP-92 NSCLC): 257 nM; TGI (HOP-92 NSCLC): 940 nM; GI50 (DU-145 prostate): 580 nM; TGI (DU-145 prostate): > 100000 nM; GI50 (K-562 leukemia): 339 nM; TGI (K-562 leukemia): > 100000 nM; GI50 (MOLT-4 leukemia): 459 nM; TGI (MOLT-4 leukemia): > 47400 nM; GI50 (SK-MEL-28 melanoma): 533 nM; TGI (SK-MEL-28 melanoma): > 100000 nM; GI50 (SNB-19 CNS): 425 nM; TGI (SNB-19 CNS): > 44100 nM; GI50 (NCI-H226 lung): 3040 nM; TGI (NCI-H226 lung): > 50800 nM; GI50 (OVCAR-8 ovarian): 408 nM; TGI (OVCAR-8 ovarian): 11900 nM; GI50 (CCRF-CEM leukemia): 411 nM; TGI (CCRF-CEM leukemia): > 63700 nM; GI50 (A498 renal): 1810 nM; TGI (A498 renal): > 31000 nM; GI50 (ACHN renal): 419 nM; TGI (ACHN renal): 2440 nM; GI50 (OVCAR-5 ovarian): 3430 nM; TGI (OVCAR-5 ovarian): > 81100 nM; GI50 (SF-539 CNS): 430 nM; TGI (SF-539 CNS): 3410 nM; GI50 (BT-549 breast): 419 nM; TGI (BT-549 breast): > 21700 nM; GI50 (NCI/ADR-RES ovarian): 356 nM; TGI (NCI/ADR-RES ovarian): 6330 nM; GI50 (IGROV1 ovarian): 735 nM; TGI (IGROV1 ovarian): 11500 nM; GI50 (RXF 393 renal): 744 nM; TGI (RXF 393 renal): 19100 nM; GI50 (SF-268 CNS): 471 nM; TGI (SF-268 CNS): > 73900 nM; GI50 (A549 NSCLC): 651 nM; TGI (A549 NSCLC): > 35800 nM; GI50 (KM12 colon): 507 nM; TGI (KM12 colon): > 100000 nM; GI50 (HCT-15 colon): 323 nM; TGI (HCT-15 colon): > 37100 nM; GI50 (UO-31 renal): 297 nM; TGI (UO-31 renal): 1570 nM; GI50 (SW-620 colon): 403 nM; TGI (SW-620 colon): > 35700 nM; GI50 (EKVX NSCLC): 788 nM; TGI (EKVX NSCLC): > 26400 nM; GI50 (MCF7 breast): 325 nM; TGI (MCF7 breast): > 35300 nM; GI50 (PC-3 prostate): 391 nM; TGI (PC-3 prostate): > 37800 nM; GI50 (HT29 colon): 7400 nM; TGI (HT29 colon): > 100000 nM; GI50 (SF-295 CNS): 460 nM; TGI (SF-295 CNS): 11900 nM; GI50 (SR leukemia): 385 nM; TGI (SR leukemia): > 50800 nM; GI50 (M14 melanoma): 476 nM; TGI (M14 melanoma): 3500 nM; GI50 (HOP-62 NSCLC): 519 nM; TGI (HOP-62 NSCLC): 6840 nM; GI50 (HCT-116 colon): 324 nM; TGI (HCT-116 colon): 9380 nM; GI50 (UACC-62 melanoma): 1060 nM; TGI (UACC-62 melanoma): 5080 nM; GI50 (UACC-257 melanoma): 708 nM; TGI (UACC-257 melanoma): 6620 nM; GI50 (U251 CNS): 293 nM; TGI (U251 CNS): 7600 nM; GI50 (HCC-2998 colon): 612 nM; TGI (HCC-2998 colon): > 100000 nM; GI50 (OVCAR-4 ovarian): 672 nM; TGI (OVCAR-4 ovarian): 9210 nM; GI50 (LOX IMVI melanoma): 556 nM; TGI (LOX IMVI melanoma): 7940 nM; GI50 (RPMI-8226 leukemia): 437 nM; TGI (RPMI-8226 leukemia): > 100000 nM; GI50 (NCI-H522 lung): 456 nM; TGI (NCI-H522 lung): 11900 nM; GI50 (SK-OV-3 ovarian): 529 nM; TGI (SK-OV-3 ovarian): 4890 nM; GI50 (SK-MEL-2 melanoma): 540 nM; TGI (SK-MEL-2 melanoma): 5710 nM; GI50 (SN12C renal): 448 nM; TGI (SN12C renal): 18300 nM; GI50 (SK-MEL-5 melanoma): 579 nM; GI50 (SNB-75 CNS): 279 nM; TGI (SNB-75 CNS): 4420 nM; GI50 (MALME-3M melanoma): 599 nM; TGI (MALME-3M melanoma): 5000 nM; GI50 (TK-10 renal): 428 nM; TGI (TK-10 renal): 7280 nM; GI50 (MDA-MB-435): 441 nM; TGI (MDA-MB-435): > 73800 nM; GI50 (HS 578T breast): 398 nM; TGI (HS 578T breast): 6240 nM; GI50 (MDA-MB-231 breast): 996 nM; TGI (MDA-MB-231 breast): 16200 nM; GI50 (786-0 renal): 759 nM; TGI (786-0 renal): 11700 nM; GI50 (HL-60(TB) leukemia): 369 nM
